The results in this text go back to patent publication US20110118236A1, “HETEROCYCLIC COMPOUND” (priority 2008, published 2011).

For the assay, the target named is T1, AMPA receptor (human GluR1 flip/stargazin expressed in CHO-K1 cells) (Homo sapiens, UniProt P42261).
T1 construct: expressed in transfected cells; host or cells: CHO-K1
T1 sequence (P42261 19-906 isoform P42261-2 limits assumed): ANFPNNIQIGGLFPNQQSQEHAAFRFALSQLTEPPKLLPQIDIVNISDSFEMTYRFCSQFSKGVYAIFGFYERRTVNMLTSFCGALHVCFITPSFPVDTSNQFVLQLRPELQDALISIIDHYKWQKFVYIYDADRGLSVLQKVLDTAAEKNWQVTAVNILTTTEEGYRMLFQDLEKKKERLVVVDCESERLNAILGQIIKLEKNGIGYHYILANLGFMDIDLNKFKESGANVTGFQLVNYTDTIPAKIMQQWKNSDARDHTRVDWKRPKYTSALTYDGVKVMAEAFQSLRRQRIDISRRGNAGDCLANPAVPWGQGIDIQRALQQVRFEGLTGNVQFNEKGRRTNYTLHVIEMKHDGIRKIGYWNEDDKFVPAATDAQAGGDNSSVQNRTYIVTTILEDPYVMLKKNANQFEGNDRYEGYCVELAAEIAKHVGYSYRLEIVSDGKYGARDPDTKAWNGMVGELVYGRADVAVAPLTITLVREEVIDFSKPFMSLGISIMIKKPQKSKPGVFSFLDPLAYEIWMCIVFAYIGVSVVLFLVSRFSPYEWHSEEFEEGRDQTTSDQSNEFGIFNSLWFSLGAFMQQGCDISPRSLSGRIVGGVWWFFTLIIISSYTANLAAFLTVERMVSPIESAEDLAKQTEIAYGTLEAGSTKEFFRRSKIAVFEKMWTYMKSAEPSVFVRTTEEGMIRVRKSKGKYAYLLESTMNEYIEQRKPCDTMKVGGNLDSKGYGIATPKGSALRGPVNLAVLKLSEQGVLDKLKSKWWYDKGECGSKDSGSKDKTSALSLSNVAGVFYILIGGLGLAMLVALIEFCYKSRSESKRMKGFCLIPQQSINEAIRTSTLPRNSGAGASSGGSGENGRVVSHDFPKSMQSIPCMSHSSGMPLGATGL
T1 sequence (Q9Y698 whole entry partner): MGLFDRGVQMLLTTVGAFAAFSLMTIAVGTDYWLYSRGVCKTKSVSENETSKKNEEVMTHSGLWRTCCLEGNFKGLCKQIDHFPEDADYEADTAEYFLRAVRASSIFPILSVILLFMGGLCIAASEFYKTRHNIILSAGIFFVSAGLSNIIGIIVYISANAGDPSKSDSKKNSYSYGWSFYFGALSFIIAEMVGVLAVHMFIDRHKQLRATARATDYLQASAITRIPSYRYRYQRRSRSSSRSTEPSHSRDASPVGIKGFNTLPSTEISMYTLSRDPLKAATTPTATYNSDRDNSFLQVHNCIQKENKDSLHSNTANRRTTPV
Briefly: Assay of AMPA receptor potentiation by compounds, using calcium influx as an indicator. Format: cell-based. To be noted: compound 30 μM with glutamic acid final concentration 3 mM, 100% = glutamic acid 3 mM + 300 μM cyclothiazide, 0% = glutamic acid only, change over 3 minutes. The text has this: (1) Construction of Expression Genes
Human GluR1 flip cDNA was amplified by PGR using the forward primer ACTGAATTCGCC […] (SEQ ID: 1), and the reverse primer CCGCGGC […] (SEQ ID: 2), which had been artificially synthesized using human brain-derived cDNA (BD Bioscience) as template. The amplified product was digested with the restriction enzymes EcoRI and NotI. (Takara Shuzo Co., Ltd.), and was then incorporated at the same site of peDNA3.1(+) (Invitrogen) to construct; the pcDNA3.1(+)/human GluR1 flip gene. Human stargazin cDNA was amplified by PCR using the forward primer GGTC TCGAGOCCACCATGGOGCTGTTTGATCGAGGTGTTCA (SEQ ID: δ 3), and the reverse primer […] (SEQ ID: 4), which had been artificially synthesized using human hippocampal cDNA as template. The amplified product was digested with the restriction enzymes XhoI and BamHI (Takara Shuzo Co., Ltd.), and was then incorporated at the same site of pcDNA3.1(−) (Invitrogen) to construct the pcDN.A3.1. Zeo(−)/human stargazin gene.
(2) Construction of Cells Expressing GluR1 Flip/Stargazin
CHO-K1 cells passaged in culture media (Ham's F12 media (Invitrogen) supplemented with […] inactivated fetal bovine serum (Morgate), penicillin, and streptomycin (Invitrogen)) were separated using 0.05% trypsin diluted with D-PBS(−), and 0.53 mM EDTA (Invitrogen). The separated cells were suspended in culture media and harvested by centrifugation at 1,000 rpm. The harvested cells were re-suspended in D-PBS(−) and introduced into a 0.4 cm electroporation cuvette (BioRad). The pcDNA3.1(+)/human GluR1 flip gene (5 μg) and pcDNA3.1 Zeo(−)/human stargazin gene (15 μg) were added, and were introduced into the CHO-K1 cells using a Gene Pulser II (BioRad) at 950 μFd and […]. The cells were incubated overnight in culture media, and on the next day 96-well plates were seeded with 250 cells/well using selection media (Zeocin (Invitrogen) in a concentration of 250 μg/mL in culture media). Drug resistant clones were selected, and clones expressing GluR1 flip/stargazin were selected by the following assay using calcium influx as an indicator.
(3) Assay of AMPA receptor potentiation by compounds, using calcium influx as an indicator 96-well black-bottomed clear plates (Costar) were seeded with the CHO-K1/GluR1 flip/stargazin expressing cells (2×10^4 cells/well), and were incubated for 2 days at 37° C. in a CO2 incubator (Sanyo). The cell plate media was removed, and assay buffer A (D-MEM (Invitrogen), 0.1% BSA (Serological Protein, Inc.), and 20 mM HEPES (invitrogen)) was added to a concentration of 50 μL/well. A calcium indicator (Calcium Kit B-Fluo4 for TKB, Dojindo Laboratories) containing 2.5 mM probenecid (Dojindo Laboratories) was added to a concentration of 50 μL/well, and the plates were allowed to stand for 1 hour at 37° C. in a CO2 incubator. The cell plates were set up on a CellLux (PerkinElmer), a 50 pt mixture of 9 mM glutamic acid diluted (final concentration 3 mM) with assay buffer B (HBSS (Invitrogen), 0.1% BSA, and 20 mM HEPES) and the compound to be tested (concentration of compound to be detected: 30 μM) was added, and the change in the level of fluorescence over a period of 3 minutes was determined. The compound activity was calculated using the following equation, wherein the change in fluorescence in wells containing glutamic acid (final concentration 3 mM) and 300 μM cyclothiazide (TOCRIS) was defined as 100%, and the change in fluorescence in wells containing only glutamic acid (final concentration 3 mm) was defined as 0%.
Activity (%)=(X−C)/(T−C)×1.00
T: change in fluorescence in wells containing glutamic acid (final concentration 3 mM) and 300 μM cyclothiazide C: change in fluorescence in wells containing only glutamic acid (final concentration 3 mM) X: change in fluorescence in wells containing compound to be detected
Consider `O=C(c1csc(Cn2nc(C(F)(F)F)c3c2CCCC3)n1)N1CCCC1` [Example 145, 1-{[4-(Pyrrolidin-1-ylcarbonyl)-1,3-thiazol-2-yl]methyl}-3-(trifluoromethyl)-4,5,6,7-tetrahydro-1-H-indazole], for which the “Activity (%) of AMPA receptor potentiation (change in fluorescence, calcium influx)” value worked out at 85%. For the compound `NC(=O)c1c(NC(=O)Cn2nc(C(F)(F)F)c3c2CNCC3)sc2c1CCCC2` [Example 185, 2-({[3-(Trifluoromethyl)-4,5,6,7-tetrahydro-1H-pyrazolo[3,4-c]pyridin-1-yl]acetyl}amino)-4,5,6,7-tetrahydro-1-benzothiophene-3-carboxamide], the “Activity (%) of AMPA receptor potentiation (change in fluorescence, calcium influx)” value is 88%. Next, `NC(=O)c1c(NC(=O)Cn2nc(C(F)(F)F)c3c2CCNC3)sc2c1CCCC2` [Example 190, 2-({[3-(Trifluoromethyl)-4,5,6,7-tetrahydro-1H-pyrazolo[4,3-c]pyridin-1-yl]acetyl}amino)-4,5,6,7-tetrahydro-1-benzothiophene-3-carboxamide]: 70%; `COc1ccc(Cl)cc1NC(=O)Cn1nc(C(F)(F)F)c2c1CNCC2` [Example 196, N-(5-Chloro-2-methoxyphenyl)-2-[3-(trifluoromethyl)-4,5,6,7-tetrahydro-1H-pyrazolo[3,4-c]pyridin-1-yl]acetamide]: 80%; `COc1ccc(Cl)cc1NC(=O)Cn1nc(C(F)(F)F)c2c1CCN(C(C)=O)C2` [Example 226, 2-[5-Acetyl-3-(trifluoromethyl)-4,5,6,7-tetrahydro-1H-pyrazolo[4,3-c]pyridin-1-yl]-N-(5-chloro-2-methoxyphenyl)acetamide]: 74%. Turning to `CNC(=O)N1CCc2c(c(C(F)(F)F)nn2CC(=O)Nc2cc(Cl)ccc2OC)C1` [Example 229, 1-{2-[(5-Chloro-2-methoxyphenyl)amino]-2-oxoethyl}-N-methyl-3-(trifluoromethyl)-1,4,6,7-tetrahydro-5H-pyrazolo[4,3-c]pyridine-5-carboxamide], the “Activity (%) of AMPA receptor potentiation (change in fluorescence, calcium influx)” value is given as 78%.

As for `FC(F)(F)c1nn(Cc2nnc(-c3cccs3)o2)c2c1CCCC2` [Example 272, 1-[(5-Thiophen-2-yl-1,3,4-oxadiazol-2-yl)methyl]-3-(trifluoromethyl)-4,5,6,7-tetrahydro-1H-indazole], the “Activity (%) of AMPA receptor potentiation (change in fluorescence, calcium influx)” value is 86%. The result for `Cc1cc(C)n2ncc(-c3noc(Cn4nc(C(F)(F)F)c5c4CCCC5)n3)c2n1` [Example 276, 5,7-Dimethyl-3-(5-{[3-(trifluoromethyl)-4,5,6,7-tetrahydro-1H-indazol-1-yl]methyl}-1,2,4-oxadiazol-3-yl)pyrazolo[1,5-a]pyrimidine] reads 79%; that for `FC(F)(F)c1nn(Cc2nc(-c3cnccn3)no2)c2c1CCCC2` [Example 277, 1-[(3-Pyrazin-2-yl-1,2,4-oxadiazol-5-yl)methyl]-3-(trifluoromethyl)-4,5,6,7-tetrahydro-1H-indazole], 75%.

For `Cc1cc(C(F)(F)F)n2ncc(-c3noc(Cn4nc(C(F)(F)F)c5c4CCC5)n3)c2n1` [Example 278], the “Activity (%) of AMPA receptor potentiation (change in fluorescence, calcium influx)” value is 82%. For `FC(F)(F)c1nn(Cc2nc(-c3cccs3)no2)c2c1COCC2` [Example 279, 1-[(3-Thiophen-2-yl-1,2,4-oxadiazol-5-yl)-methyl]-3-(trifluoromethyl)-1,4,6,7-tetrahydropyrano[4,3-c]pyrazole], the “Activity (%) of AMPA receptor potentiation (change in fluorescence, calcium influx)” value was 62%. On to `CSc1sc(C(=O)NCCn2nc(C(F)(F)F)c3c2CCCC3)c2nc(C)n(C)c12` [Example 280, 1,2-Dimethyl-6-(methylsulfanyl)-N-{2-[3-(trifluoromethyl)-4,5,6,7-tetrahydro-1H-indazol-1-yl]ethyl}-1H-thieno[3,4-d]imidazole-4-carboxamide], for which the “Activity (%) of AMPA receptor potentiation (change in fluorescence, calcium influx)” value came to 86%. The result for `Cc1cc(C(F)(F)F)n2ncc(-c3noc(Cn4nc(C(F)(F)F)c5c4CCCC5)n3)c2n1` [Example 283, 5-Methyl-7-(trifluoromethyl)-3-(5-{[3-(trifluoromethyl)-4,5,6,7-tetrahydro-1H-indazol-1-yl]methyl}-1,2,4-oxadiazol-3-yl)pyrazolo[1,5-a]pyrimidine] reads 76%; that for `CSc1sc(C(=O)NCCn2nc(C(F)(F)F)c3c2CCCC3)c2c1C(O)CCC2` (centres unmarked) [Example 287, 4-Hydroxy-3-(methylsulfanyl)-N-{2-[3-(trifluoromethyl)-4,5,6,7-tetrahydro-1H-indazol-1-yl]ethyl}-4,5,6,7-tetrahydro-2-benzothiophene-1-carboxamide], 68%.
